Reference: patent US9272013B2, “Methods for treating combined radiation and thermal injury” (University of Southern California, priority 2010, dated 2016)
“Also recorded” adds a separate entry of the source. Where no end group is shown, it is not given here. [ ]: non-standard residue; d: D form. Nle = CCCC[C@H](N)C(=O)O

Experiments:
Type in all cases: in vivo
[1] = test system: mouse model of CRBI (10 sec scald at 70 C following 600 cGy TBI); experiment: Apoptosis in dermal tissue by TUNEL assay in mouse thermal injury / CRBI model; details: daily 100 ul per wound at 1 mg/ml, day 7
Description: Mice received thermal injury only received a 7% total body surface area scald at 70 C for 10 seconds (under ketamine/xylazine anesthesia). Mice that received the combined injury received total body irradiation with a cesium irradiator at a dose of 6 Gy and 2 hours later received the same scald injury. For the data presented, the treatments were started immediately after the scald injury and the wound were bandaged with Tegaderm. Treatment was daily with 100 ul give per wound at a concentration of 1 mg/ml. The animals were euthanized on day 7. Apoptosis in the dermal tissue was measured by TUNEL assay. NorLeu3-A(1-7) provides additional systems to mitigate delayed wound healing with the involvement of radiation.

[2] = test system: Guinea Pig Model of CRBI (200 cGy TBI combined with 18 mm burn injuries); experiment: NorLeu^3-A(1-7) dose-response study, survival in guinea pig model of CRBI; details: 1 μg/wound/day and above, applied to site of thermal injury daily through day 14; 200 cGy TBI + 18 mm burns
Description: (§1) In a subsequent study, 200 cGy TBI was combined with 18 mm burn injuries in a NorLeu^3-A(1-7) dose-response study. On the day of thermal injury and daily through day 14, various concentrations of NorLeu^3-A(1-7) (0-300 μg/day) were applied to the site of thermal injury (FIG. 3).
(§2) For these studies, male Hartley guinea pigs weighing approximately 500 grams were purchased from Charles Rivers Laboratory (Charles Rivers, Mass.). The guinea pigs were housed in a 12:12 hour, light:dark, cycle in the USC Vivaria. The animals received 200 cGy TBI using a Cesuim 137 irradiator. One to two hours thereafter, the guinea pigs received a thermal injury. The thermal injuries were produced and post-operative care performed as described in Rodgers et al., 1997a,b, 2001. Briefly, after anesthesia, two burns were produced on each guinea pig with an 18 mm diameter solid brass rod, which was warmed in a 75° C. water bath. One end of the brass rod was placed on the back of the guinea pig for 50 seconds.
Each burn was treated with 2% HEC (vehicle for topical drug application) with and without NorLeu^3-A(1-7) in 0.05 mol/L phosphate buffer, pH 6.5, and was individually dressed. Treatment was started at various times after TBI and thermal injury as indicated below.

[3] = test system: Guinea Pig Model of CRBI (200 cGy TBI combined with 18 mm burn injuries); experiment: Proliferating cells at the edge of the burn (immunohistochemical staining, MIB-1) in guinea pig CRBI model; details: topical, day 14, 200 cGy TBI + 18 mm burns
Description: as §1
For these studies, male Hartley guinea pigs weighing approximately 500 grams were purchased from Charles Rivers Laboratory (Charles Rivers, Mass.). The guinea pigs were housed in a 12:12 hour, light:dark, cycle in the USC Vivaria. The animals received 200 cGy TBI using a Cesuim 137 irradiator. One to two hours thereafter, the guinea pigs received a thermal injury. […]
On day 14 after thermal injury, the guinea pigs was euthanized, the burned areas will be excised en bloc. […] Healing was measured by the number of proliferating cells at the injury site. […]
With an Olympus Vanox-S AH-2 dissecting microscope and a magnification power of 100×, each section of the biopsy specimen was separated into either areas on the burn edge or the actual burn areas. […] In each section four to six consecutive medium-power fields (mpf, 100×) were evaluated. […] All stained cells located within the hair follicles of the biopsy sections were counted. […] Each field was then determined to be either a section on the edge of the burn or a part of the burn area itself. […]

[4] = test system: Guinea Pig Model of CRBI (200 cGy TBI and thermal injury 2 hours later); experiment: Time point at which treatment can be initiated, survival in guinea pig CRBI model; details: 10 or 100 μg/daily
Description: A second study was conducted in this model to assess the length of time that treatment can be delayed and still reduce mortality. In this study, the guinea pigs underwent 200 cGy TBI and thermal injury 2 hours later. Treatment with placebo was started on day 0. Treatment with 10 or 100 μg/daily NorLeu^3-A(1-7) was initiated on day 0, 1, 2, 3 or 4. When treatment was started at days 0, 1, 2, or 3 survival was increased to approximately 40-60% versus 14% in the placebo-treated animals (FIG. 6-9).
as §2
Each burn was treated with 2% HEC (vehicle for topical drug application) with and without NorLeu^3-A(1-7) in 0.05 mol/L phosphate buffer, pH 6.5, and was individually dressed. […]

## Asp-Arg-Nle-Tyr-Ile-His-Pro (DR[Nle]YIHP) [NorLeu^3-A(1-7)]
[1]; mouse CRBI: 10 sec scald at 70 C following 600 cGy TBI
  apoptosis in the dermis and subdermis of thermal injuries: reduces apoptosis
[1]; mouse thermal injury only (no TBI): 7% TBSA scald at 70 C for 10 seconds
  apoptosis at the site of thermal injury alone: not at the site of thermal injury alone
[2]
  mortality associated with combined injury: reduced mortality
[3]; all doses (except 3 μg/wound/day)
  number of proliferating cells in the hair follicle bulge at the edge of the wound: increases proliferating cells; also recorded: increased the number of proliferating cells
[3]; doses of 10 μg/daily and above
  number of (proliferating) cells in the basal keratinocyte layer at the edge of the burn: increases proliferating cells; also recorded: increase in the number of cells
[4]; initiation of treatment delayed until day 4
  effectiveness (survival) with delayed treatment: effectiveness was reduced
[4]; treatment started at days 0, 1, 2, or 3 after CRBI, versus 14% in placebo-treated animals
  survival: 40-60%
